The data set is described as follows: Comparative absorbability test, oral administration to beagles (pharmacokinetics). In kind it is in vivo. The conditions noted are these: male beagle, oral with 20 ml water, 0-24 h, in terms of 3 mg/kg (doses given: Examples 6-8 3 mg/kg, crystal 6 mg/kg, Comparative Example 1 4 mg/kg).

Molecules are shown by their SMILES.

As to `CCCn1c(=O)c2[nH]c(C34CC5CC(CC3C5)C4)nc2n(CCC)c1=O` [Compound No. 1], the “The Area under the Plasma Concentration Curve, Intact Drug (in terms of 3 mg/kg)” value stood at 69.9 ± 2.6 ng·h/mL.

The values are drawn from patent US6254889A, “Solid dispersion dosage form of amorphous xanthine derivative and enteric-coating polymer” (Kyowa Hakko Kogyo Co., Ltd., priority 1995, dated 2001).
